Reference: US4117133A, “Vasodilating cuanzine hydrazides” (Inverni Della Beffa S.p.A., priority 1975, dated 1978)
In brackets after ≈: the same amount, converted by molar mass. Counter-ions that a name gives are not always drawn.

Experiments:
[1] = test system: anaesthetized mongrel dogs; experiment: Haemodynamic activities in anaesthetized dogs; type: in vivo; set-up: key to Flow coronary / Flow femoral / Contractive power of heart: +++: intense increase; ++: moderate increase; +: faint increase; =: no change; details: intravenous; for Arterial pressure Average variation carotid / Arterial pressure Average variation femoral / Contractive power of heart / Flow coronary / Flow femoral: one twentieth of the LD50: cuanzine HCl 8, hydrazide bitartrate 10, 21-epicuanzine HCl 5, apocuanzine HCl 2.5, dimethylaminoethyl ester 10 mg/kg
Experimental: The products under investigation were administered intravenously to anaesthetized mongrel dogs in doses which were in proportion to the lethal dose (one twentieth of the LD50).
The average of the carotid and femoral arterial pressures, the […] coronary and femoral flow rates and the contractive power of the heart were measured and the results are shown in Table I.

[2] = test system: isolated ileum of guinea pigs; experiment: Spasmolytic activity on the isolated ileum of guinea pigs (acetylcholine-induced spasm); details: limits in parentheses, contact time spasmogenic 1 min, spasmolytic 3 min, interval between administrations 5 min; for IC50: Cavia porcellus, 0.05 h, read-out: ED50 and base limits on spasm induced by 100 mg/ml of acetylcholine
Experimental: (1) (1) induced by 100 mg/ml of acetylcholine
(1) The time of contact of the spasmogenic and spasmolytic substances was
1 and 3 minutes, respectively.
The interval between the administrations was 5 minutes.

Compound | Arterial pressure Average variation carotid [1] | Arterial pressure Average variation femoral [1] | Contractive power of heart [1] | Flow coronary [1] | Flow femoral [1] | IC50 [2] | haemodynamic activity compared with cuanzine (in words) ([1]; anaesthetized dogs, one twentieth of the LD50) | ED50 and base limits on spasm induced by 100 mg/ml of acetylcholine [2]
COc1cccc2c3c([nH]c12)[C@H]1N(CC3)CC[C@@H]2OCC[C@@]21CC(=NN)C(=O)NN [Cuanzine hydrazide bitartrate] | -30 mm Hg | -30 mm Hg | + | +++ | ++ | 74 µg/mL | – | –
COc1cccc2c3c4n(c12)[C@](O)(C(=O)OCCN(C)C)C[C@]12CCO[C@H]1CCN(CC3)[C@H]42 [N,N-dimethylaminoethyl nor-cuanzinate] | -10 mm Hg | -10 mm Hg | = | ++ | + | – | as active as cuanzine | –
21-epicuanzine | – | – | – | – | – | – | – | 37 (68.8 - 19.9) γ/ml
COC(=O)[C@]1(O)C[C@]23CCO[C@H]2CCN2CCc4c(n1c1c(OC)cccc41)[C@@H]23 [Cuanzine hydrochloride, reference compound] | -10 mm Hg | -10 mm Hg | = | ++ | + | 120 µg/mL | – | –
COC(=O)C1=C[C@]23CCO[C@H]2CCN2CCc4c(n1c1c(OC)cccc41)[C@@H]23 [Apocuanzine hydrochloride, Apocuanzine] | -15 mm Hg | -15 mm Hg | + | +++ | + | – | – | –
COC(=O)C1=C[C@]23CCO[C@H]2CCN2CCc4c(n1c1c(OC)cccc41)[C@@H]23 [Apocuanzine] | – | – | – | – | – | 26.5 µg/mL (≈ 69.7 µM) | – | –
COC(=O)[C@]1(O)C[C@]23CCO[C@H]2CCN2CCc4c(n1c1c(OC)cccc41)[C@H]23 [21-epicuanzine hydrochloride, 21-Epicuanzine (A=β-H,B = CO2 Me, C=OH,D=H) hydrochloride] | -20 mm Hg | -20 mm Hg | = | ++ | + | – | – | –
